Assay results reported in PubChem BioAssay AID328 (DTP/NCI, 2004).
Where “and” joins values, the source holds several entries; their conditions need not be identical. Identical values can stand only once. Toxic doses and inconclusive results are not listed. How the source made its calls: active means survival T/C of 150% or more; inactive means T/C below 125% in these data. Non-standard residues stand in square brackets, D forms with d. Residues, ends and D or L forms follow the SMILES beside them. ξ: configuration not given here. ξK = NCCCCC(N)C(=O)O

Test system: BDF1 mice, P388 leukemia ip, median survival T/C
Test: NCI In Vivo Anticancer Drug Screen. Data for tumor model P388 Leukemia (intraperitoneal) in B6D2F1 (BDF1) mice
Conditions: endpoint: median survival time, higher = longer survival
How it was run: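 Steps: implant the tumour, treat one group with compound and another with vehicle, record survival, then divide treated by control.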

Measured: T/C

NCCCCC(N)C(=O)NCC(=O)O (stereo not given) (H-[ξK]-Gly-OH)
inactive: dose: 50.0 mg/kg/injection, schedule: Q01DX005 (ip), vehicle: saline 95 % of control | dose: 100.0 mg/kg/injection, schedule: Q01DX005 (ip), vehicle: saline 102 % of control | dose: 200.0 mg/kg/injection, schedule: Q01DX005 (ip), vehicle: saline 88 % of control

O=C1NC(Cc2ccc(N(CCCl)CCCl)cc2)C(=O)O1 (stereo not given)
inactive: dose: 0.06 mg/kg/injection, schedule: Q01DX009 (ip), vehicle: saline with Tween-80 104 % of control | dose: 0.2 mg/kg/injection, schedule: Q04DX003 (ip), vehicle: saline with Tween-80 100 % of control | dose: 0.3 mg/kg/injection, schedule: Q04DX003 (ip), vehicle: saline with Tween-80 112 % of control | dose: 0.5 mg/kg/injection, schedule: Q04DX003 (ip), vehicle: saline with Tween-80 112 % of control | dose: 12.0 mg/kg/injection, schedule: Q01DX009 (ip), vehicle: saline with Tween-80 115 % of control | dose: 60.0 mg/kg/injection, schedule: Q04DX003 (ip), vehicle: saline with Tween-80 119 % of control
active: dose: 0.12 mg/kg/injection, schedule: Q01DX009 (ip), vehicle: saline with Tween-80 150 % of control | dose: 0.25 mg/kg/injection, schedule: Q01DX009 (ip), vehicle: saline with Tween-80 159 % of control | dose: 0.5 mg/kg/injection, schedule: Q01DX009 (ip), vehicle: saline with Tween-80 168 % of control | dose: 0.8 mg/kg/injection, schedule: Q04DX003 (ip), vehicle: saline with Tween-80 154 % of control | dose: 1.0 mg/kg/injection, schedule: Q04DX003 (ip), vehicle: saline with Tween-80 163 % of control | dose: 1.3 mg/kg/injection, schedule: Q04DX003 (ip), vehicle: saline with Tween-80 159 % of control | dose: 2.0 mg/kg/injection, schedule: Q01DX009 (ip), vehicle: saline with Tween-80 230 % of control | dose: 2.0 mg/kg/injection, schedule: Q04DX003 (ip), vehicle: saline with Tween-80 168 % of control and 172 % of control | dose: 3.0 mg/kg/injection, schedule: Q04DX003 (ip), vehicle: saline with Tween-80 200 % of control | dose: 3.4 mg/kg/injection, schedule: Q04DX003 (ip), vehicle: saline with Tween-80 150 % of control | dose: 4.5 mg/kg/injection, schedule: Q04DX003 (ip), vehicle: saline with Tween-80 222 % of control | dose: 5.2 mg/kg/injection, schedule: Q04DX003 (ip), vehicle: saline with Tween-80 154 % of control | dose: 5.5 mg/kg/injection, schedule: Q01DX009 (ip), vehicle: saline with Tween-80 230 % of control | dose: 8.0 mg/kg/injection, schedule: Q01DX009 (ip), vehicle: saline with Tween-80 230 % of control | dose: 8.0 mg/kg/injection, schedule: Q04DX003 (ip), vehicle: saline with Tween-80 195 % of control | dose: 27.0 mg/kg/injection, schedule: Q04DX003 (ip), vehicle: saline with Tween-80 272 % of control (2×) and 207 % of control | dose: 40.0 mg/kg/injection, schedule: Q04DX003 (ip), vehicle: saline with Tween-80 157 % of control

Cc1c(N)cc([N+](=O)[O-])c(C)c1[N+](=O)[O-]
inactive: dose: 50.0 mg/kg/injection, schedule: Q01DX009 (ip), vehicle: saline with Tween-80 95 % of control | dose: 100.0 mg/kg/injection, schedule: Q01DX009 (ip), vehicle: saline with Tween-80 90 % of control

Cc1c(C)c(O)c2c(c1O)C(=O)C=C(Cl)C2=O
inactive: dose: 6.25 mg/kg/injection, schedule: Q04DX003 (ip), vehicle: saline with Tween-80 121 % of control | dose: 12.5 mg/kg/injection, schedule: Q04DX003 (ip), vehicle: saline with Tween-80 119 % of control and 120 % of control | dose: 25.0 mg/kg/injection, schedule: Q04DX003 (ip), vehicle: saline with Tween-80 110 % of control and 120 % of control

CC(=O)OC1CCC2(C)C3=C(CCC2C1)C1C(OC(=O)c2ccccc2[N+](=O)[O-])CC(c2ccc(=O)oc2)C1(C)CC3 (stereo not given)
inactive: dose: 0.25 mg/kg/injection, schedule: Q01DX009 (ip), vehicle: Klucel (hydroxypropylcellulose) (HPC) 102 % of control | dose: 0.5 mg/kg/injection, schedule: Q01DX009 (ip), vehicle: Klucel (hydroxypropylcellulose) (HPC) 111 % of control | dose: 1.0 mg/kg/injection, schedule: Q01DX009 (ip), vehicle: Klucel (hydroxypropylcellulose) (HPC) 100 % of control

CC([OH2+])CNCCN.CC([OH2+])CNCCN.[Cu+2].[O-][Cl+3]([O-])([O-])[O-] (stereo not given)
inactive: dose: 12.5 mg/kg/injection, schedule: Q01DX009 (ip), vehicle: saline 108 % of control | dose: 25.0 mg/kg/injection, schedule: Q01DX009 (ip), vehicle: saline 115 % of control | dose: 50.0 mg/kg/injection, schedule: Q01DX009 (ip), vehicle: saline 114 % of control

CCCCCCCC/C=C\CCCCCCCC(=O)OCCCCCCCCCCCCCCC
inactive: dose: 100.0 mg/kg/injection, schedule: Q04DX003 (ip), vehicle: saline 100 % of control | dose: 200.0 mg/kg/injection, schedule: Q04DX003 (ip), vehicle: saline 100 % of control | dose: 400.0 mg/kg/injection, schedule: Q04DX003 (ip), vehicle: saline 100 % of control
